{
  "source": "paper PMC8994274",
  "about": "“A proteolysis-targeting chimera molecule selectively degrades ENL and inhibits malignant gene expression and tumor growth” (Journal of Hematology & Oncology, 2022)",
  "key": {"[1]": {"system": "AF9, AFF4, cyclin-T1, DOT1L", "experiment": "Other SEC-related proteins in nucleus of MV4;11 cells (Western blot)", "type": "cell-based", "conditions": "4 days", "description": "We further investigated how compound 1 affects ENL, AF9 and other proteins of SEC in the cytoplasmic and nuclear compartments, the latter of which are more relevant to the functions of these transcription cofactors. […] Upon treatment of MV4;11 cells with these compounds for 4 days, cytoplasmic and nuclear proteins were separated and subjected to SDS-PAGE/Western blot. […] In addition, nuclear levels of H3K79 methylation, the product of DOT1L catalyzed reactions, were not consistently affected by compound 1.\n3 × 10^6 cells/well were treated with increasing concentrations of a compound for 1 day, and whole proteins were extracted. Equal amounts of proteins were separated on SDS-PAGE and transferred to PVDF membranes. The blots were probed with primary antibodies, followed by anti-rabbit IgG (Thermo Scientific) secondary antibodies. The primary antibodies against ENL (Cell signaling #14893), AF9 (Novusbio #NB100-1565), DOT1L (Cell signaling #77087), AFF4 (Abcam #ab103586), Cyclin T1 (Cell signaling #81464), H3K79me2 (Cell signaling #5427), H3K79me1 (Cell signaling #9398), Histone H3 (Cell signaling #4499), FLAG (Sigma-Aldrich #F1804), β-Actin (Cell signaling #4970) were used in this study."}, "Molm-13 leukemia": {"system": "Molm-13 leukemia", "experiment": "Subcutaneous Molm-13 leukemia xenograft in NOD-SCID mice", "type": "in vivo", "method": "In vivo antitumor activity of compound 1 was evaluated in a commonly used mouse model of Molm-13 leukemia. First, in vivo toxicity was assessed in C57BL/6 mice. […] Next, 10^6 Molm-13 cells were injected subcutaneously into NOD-SCID mice, which developed palpable tumors in ~ 1 week and grew rapidly.\nAll of the mouse studies were conducted in strict compliance with an […] protocol. NOD-SCID mice (6–8 weeks old, from Jackson lab) were obtained and maintained under specific pathogen-free conditions. 10^6 Molm13 cells in medical grade saline were inoculated subcutaneously, and palpable tumors (2–3 mm in diameter) were developed in ~ 1 week. Mice were treated with compound 1 (30 mg/kg/day for 13 days) in saline (0.1 mL) administered intraperitoneally. Tumors were measured every day and estimated by using the formula a × b^2/2."}, "Hela cells": {"system": "Hela cells", "experiment": "Antiproliferation assay, Hela", "conditions": "Homo sapiens, 168 h, read-out: Antiproliferative activity, EC50, Hela"}, "Kasumi-1 cells": {"system": "Kasumi-1 cells", "experiment": "Antiproliferation assay (XTT), Kasumi-1", "conditions": "Homo sapiens, Kasumi 1, 168 h, read-out: Antiproliferative activity, EC50, Kasumi-1"}, "RPMI-8226 cells": {"system": "RPMI-8226 cells", "experiment": "Antiproliferation assay (XTT), RPMI-8226", "conditions": "Homo sapiens, RPMI-8226, 168 h, read-out: Antiproliferative activity, EC50, RPMI-8226"}, "ENL [2]": {"biological_target": "T1, ENL (Homo sapiens, UniProt Q03111)", "T1 sequence (Q03111 1-559)": "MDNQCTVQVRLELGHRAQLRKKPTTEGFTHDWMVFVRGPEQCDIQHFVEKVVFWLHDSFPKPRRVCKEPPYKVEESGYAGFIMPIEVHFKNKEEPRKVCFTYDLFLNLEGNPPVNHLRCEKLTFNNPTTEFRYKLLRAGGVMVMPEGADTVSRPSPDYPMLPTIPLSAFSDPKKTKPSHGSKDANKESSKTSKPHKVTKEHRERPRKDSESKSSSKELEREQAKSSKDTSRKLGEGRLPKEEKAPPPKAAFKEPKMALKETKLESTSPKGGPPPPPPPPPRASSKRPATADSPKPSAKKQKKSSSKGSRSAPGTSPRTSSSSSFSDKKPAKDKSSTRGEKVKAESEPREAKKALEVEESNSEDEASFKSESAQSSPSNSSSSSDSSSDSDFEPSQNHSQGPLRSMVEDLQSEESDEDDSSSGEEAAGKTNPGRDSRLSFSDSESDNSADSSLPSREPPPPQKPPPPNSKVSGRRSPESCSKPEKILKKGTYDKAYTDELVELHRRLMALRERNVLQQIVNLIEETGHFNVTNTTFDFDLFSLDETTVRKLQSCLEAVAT", "experiment": "ChIP-qPCR, ENL at gene promoters of Myc and HoxA9", "type": "cell-based", "set-up": "endogenous in cells; host or cells: MV4;11", "conditions": "MV4;11 cells, 500 nM, 4 days", "method": "Chromatin immunoprecipitation (ChIP) followed by qPCR was used to further probe the activity of compound 1 in the gene promoters of Myc and HoxA9, two characteristic MLL1 target genes.\nUpon treatment with a compound for 4 days, 10^7 MV4;11 cells were cross-linked with 1% formaldehyde at room temperature for 10 min, followed by the addition of 125 mM glycine. Cells were lysed with nuclear lysis buffer and sonicated to ~ 100–1000 bp fragments, which was incubated at 4 °C overnight with an antibody and IgG (C15410206, Diagenode). Protein A/G Magnetic Beads (10 µL, Novus Biologicals) were added and incubated for 2 h. The beads were washed 3 × with RIPA buffer and 2 × with TE buffer. DNA on the beads was eluted for 2 h at 68 °C in 100 μL of an elution buffer (20 mM Tris pH 7.5, 5 mM EDTA, 50 mM NaCl, 1% SDS, 50 μg/mL proteinase K) (2 ×), and purified using a ChIP DNA Clean & Concentrator kit (Novus Biologicals). qPCR was done using the method described above."}, "ENL [3]": {"biological_target": "T1, ENL", "experiment": "ENL degradation in MV4;11 cells (Western blot)", "type": "cell-based", "set-up": "endogenous in cells; host or cells: MV4;11", "conditions": "500 nM"}, "ENL YEATS": {"biological_target": "T2, ENL YEATS (Homo sapiens, UniProt Q03111)", "T2 sequence (Q03111 1-138)": "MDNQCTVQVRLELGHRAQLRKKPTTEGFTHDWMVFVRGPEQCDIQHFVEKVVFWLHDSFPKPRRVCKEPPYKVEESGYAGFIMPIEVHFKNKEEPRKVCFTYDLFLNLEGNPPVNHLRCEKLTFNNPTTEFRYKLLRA"}},
  "data": [
    {"compound": "C[C@H]1CCCN1Cc1nc2cc(NC(=O)c3ccc4c(cnn4CCCCCCCCNc4cccc5c4C(=O)N(C4CCC(=O)NC4=O)C5=O)c3)ccc2[nH]1", "note": "(some centres unmarked) [Compound 1]", "values": [
      {"measurement": "Levels of AF9, AFF4, cyclin-T1 and DOT1L", "setting": "[1]", "result": "not significantly decreased"},
      {"measurement": "Body weight", "setting": "Molm-13 leukemia; 30 mg/kg/day for Day 3–15", "result": "did not cause significant weight losses"},
      {"measurement": "Tumor growth", "setting": "Molm-13 leukemia; 30 mg/kg/day for Day 3–15, intraperitoneally", "result": "significantly inhibited tumor growth"},
      {"measurement": "Animal survival", "setting": "Molm-13 leukemia; 30 mg/kg/day for Day 3–15, intraperitoneally, p < 0.01, 30 mg/kg/day", "result": "prolonged animal survivals"},
      {"measurement": "EC50", "setting": "Hela cells", "result": "> 50000", "unit": "nM"},
      {"measurement": "EC50", "setting": "Kasumi-1 cells", "result": "1100 ± 30", "unit": "nM"},
      {"measurement": "EC50", "setting": "RPMI-8226 cells", "result": "1200 ± 230", "unit": "nM"},
      {"measurement": "ENL levels at gene promoters of Myc and HoxA9", "setting": "ENL [2]", "result": "significantly reduced"},
      {"measurement": "Time at which significant ENL degradation can be detected", "setting": "ENL [3]", "result": 2, "unit": "h"},
      {"measurement": "Time to ENL depletion", "setting": "ENL [3]", "result": "≤ 24", "unit": "h"},
      {"measurement": "IC50", "setting": "ENL YEATS", "result": 170, "unit": "nM"}
    ]}
  ]
}
